Data as given in patent US10363239B2, “Method for inhibiting growth of cancer cells” (Pain Therapeutics, Inc., priority 2013, dated 2019).

Legend:
Assay type in all cases: cell-based, human
[1] = system: pS2448mTOR, pS473Akt, pY/pT-ERK2 in glioblastoma cells; experiment: Activated (phosphorylated) mTOR, Akt and ERK2 levels (immunoprecipitation, Western blotting); conditions: 0.1-5 nM; 4 days
Description: FIG. 10A through FIG. 10C illustrate the effect of contact with Compound C0105 on the levels of activated (phosphorylated) mTOR (pS^2448mTOR), Akt (pS^473Akt) and ERK2 (pY/pT-ERK2) in glioblastoma cells. Cells were treated with vehicle and 0.1-5 nM C0105 for 4 days. Cells were washed, solubilized and the resultant cell lysate was immunoprecipitated with anti-mTOR, -Akt or -ERK2. The levels of pS^2448mTOR, pS^473Akt, pY/pTERK2 in the respective anti-mTOR, -Akt, and -ERK2 immunoprecipitates were determined by Western blotting. The density of protein bands was measured by densitometric scanning. […] N=4. *p<0.01 compared to vehicle (open bars). […]
(§1) The cell lysates were diluted 5-fold with immunoprecipitation buffer and immunoprecipitated with anti-FLNA, -Akt, -mTOR and -ERK2 as described previously [Talbot et al., J Clin Inv 122(4):1-23 (2012); Wang et al., J Neurosci 32(29):9773-9784 (2012)]. The levels of FLNA linkages, activated phosphorylated Akt (pS^473 and pT^308), phosphorylated mTOR (pS^2448) and phosphorylated ERK2 (pY/pT) were determined in anti-FLNA, -Akt, -mTOR and -ERK2 immunoprecipitates by Western blotting with appropriate antibodies directed against PTEN, PP2A, K-RAS, ras-GAP (FLNA linkages), pS^473Akt, pT^308Akt, pS^2448mTOR and pY/pT ERK2 (activation of Akt, mTOR and ERK2).

[2] = system: pS2448mTOR, pS473Akt, pY/pT-ERK2 in primary lung fibroblast cells; experiment: as above; conditions: 0.1-5 nM; 4 days
Description: (§2) Cells were treated with vehicle and 0.1-5 nM C0105 for 4 days. Cells were washed, solubilized and the resultant cell lysate was immunoprecipitated with anti-mTOR, -Akt or -ERK2. The levels of pS^2448mTOR, pS^473Akt, pY/pTERK2 in the respective anti-mTOR, -Akt, and -ERK2 immunoprecipitates were determined by Western blotting. […] The density of protein bands was measured by densitometric scanning. […] N=4. *p<0.01 compared to vehicle (open bars). […]
as §1

[3] = system: pS2448mTOR, pS473Akt, pY/pT-ERK2 in small-cell lung carcinoma cells; experiment: as above; conditions: 0.1-5 nM; 4 days
Description: as §2, §1

MiaPaCa2 cells = experiment: Blocking of compound effects with FLNA decoy pentapeptide VAKGL or control peptide VAAGL; conditions: 4 days
Description: FIGS. 32A-32D illustrate Western blots of pS^2152FLNA, Ras-GAP, PP2A-Aα/β, PTEN and FLNA in FIG. 32A and Ki67, PCNA and actin in FIG. 32C after four days of incubation (contact) of MiaPaCa2 cells in the presence of medium alone, or medium containing 1 nM Compound C0105 with and without the presence of 10 μM peptide VAAGL (SEQ ID NO: 2) or peptide VAKGL (SEQ ID NO: 1). Densitometric quantification of the Western blot results are shown in the graphs of FIG. 32B for the amounts of pS^2152FLNA, Ras-GAP, PP2A-Aα/β and PTEN in anti-FLNA immunoprecipitates and the amounts of Ki76 and PCNA (normalized by actin) in FIG. 32D. N=4, *p<0.01.
To confirm that Compound C0105 effects are mediated by binding to FLNA pentapeptide VAKGL (SEQ ID NO: 1), cancer cells were incubated with vehicle or 1 nM Compound C0105 together with 10 μM of decoy pentapeptide (VAKGL) or control peptide, VAAGL (K-A decoy peptide; SEQ ID NO: 2) for 4 days as described previously.
Cells were harvested by centrifugation and solubilized, and lysates were immunoprecipitated with anti-FLNA. Levels of pS^2152FLNA, PTEN, PP2A-Aα, PP2A-Aβ and Ras-GAP in the anti-FLNA immunoprecipitates were determined by Western blotting.
A separate series of studies was undertaken to determine whether Compound C0105's reduction in proliferation markers is also mediated by Compound C0105 binding to the pentapeptide region of FLNA. As above, cancer cells were incubated for 4 days with vehicle or 1 nM Compound C0105 together with 10 μM of decoy pentapeptide (VAKGL; SEQ ID NO: 1) or control peptide, VAAGL (SEQ ID NO: 2).
Cells were harvested by centrifugation and the resultant cell pellets were washed and sonicated in ice-cold immunoprecipitation buffer. Protein concentrations were measured by the Bradford method. […] Fifty μl of solubilized cell lysates were separated using SDS-PAGE, the protein bands electrophoretically transferred to nitrocellulose membranes and the level of cell proliferation was determined by Western blotting using the levels of Ki67 and PCNA as described previously.

Question: For CN1CCC2(CC1)NCC(=O)N2Cc1ccccc1 [Compound C0105], which “mTOR, Akt and ERK activation (phosphorylated mTOR, Akt and ERK)” value (shortened to “mTOR, Akt and ERK activation”) [1] is on record?
Answer: robustly reduces mTOR, Akt and ERK activation

Question: And the “mTOR, Akt and ERK activation” value [2]?
Answer: little effect on mTOR, Akt and ERK activation

Question: What about the “mTOR, Akt and ERK activation” value [3] of the same compound?
Answer: robustly reduces mTOR, Akt and ERK activation

Question: And the “Effect on pS2152FLNA and FLNA associations when co-incubated with control peptide VAAGL” value (MiaPaCa2 cells; 1 nM compound + 10 μM VAAGL (SEQ ID NO: 2))?
Answer: did not disrupt Compound C0105 effects

Question: And the “Effect on pS2152FLNA and FLNA associations when co-incubated with VAKGL decoy pentapeptide” value (MiaPaCa2 cells; 1 nM compound + 10 μM VAKGL (SEQ ID NO: 1))?
Answer: lost its effect on pS^2152FLNA hyperphosphorylation and on FLNA associations with ras-GAP, PTEN and PP2A

Question: What about the “Reduction in cell proliferation (Ki67, PCNA) when co-incubated with VAKGL decoy pentapeptide” value (MiaPaCa2 cells; 1 nM compound + 10 μM VAKGL) of the same compound?
Answer: disrupted Compound C0105's reduction in cell proliferation
